Test system in the first data set: not given
Experiment: not given
Details: not given
Turning to `CCOC(=O)C=Cc1cnc(Nc2ccccc2)nc1N` [Example 28, Ethyl 3-(4-Amino-2-phenylamino-pyrimidin-5-yl)acrylate], the melting point (as a rule, the temperature of the solid-liquid transition) lay within 190 to 192 °C.
`COC(=O)Cn1c(=O)ccc2cnc(Nc3ccccc3)nc21` [Example 36] yielded a melting point of 232 to 233 °C.
`CCN(CC)CCOc1ccc(Nc2ncc3ccc(=O)n(CCOCc4ccccc4)c3n2)cc1` [Example 139] displayed a melting point of 95 to 97 °C.
Same read-out and setting: for `CC(C)n1c(=O)ccc2cnc(Nc3ccc(OCCN4CCOCC4)cc3)nc21` [Example 141, 8-Isopropyl-2-[4-(2-morpholin-4-yl-ethoxy)-phenylamino]-8H-pyrido[2,3-d]pyrimidin-7-one] the value was 118 to 119 °C.
The same measure, in the same setting: the same measure for `O=c1ccc2cnc(Nc3ccc(N4CCCCC4)cc3)nc2n1C1CCCCC1` [Example 142, 8-Cyclohexyl-2-(4-piperidin-1-yl-phenylamino)-8H-pyrido[2,3-d]pyrimidin-7-one]: 198 to 200 °C.
The compound `CC1CN(c2ccc(Nc3ncc4ccc(=O)n(C5CCCCC5)c4n3)cc2)CC(C)N1CCO` (stereo not drawn) [Example 143, 8-Cyclohexyl-2-{4-[4-(2-hydroxy-ethyl)-3,5-dimethyl-piperazin-1-yl]-phenylamino}-8H-pyrido[2,3-d]pyrimidin-7-one] gave a melting point of 175 to 177 °C.
On the same count and under the same terms, for `CCN(CC)CCOc1ccc(Nc2ncc3ccc(=O)n(C4CCCCC4)c3n2)cc1C` [Example 150, 8-Cyclohexyl-2-[4-(2-diethylamino-ethoxy)-3-methyl-phenylamino]-8H-pyrido[2,3-d]pyrimidin-7-one] the value was 119 to 121 °C; for `O=c1ccc2cnc(NC3CCCCC3)nc2n1C1CCCCC1` [Example 153, 8-Cyclohexyl-2-cyclohexylamino-8H-pyrido[2,3-d]pyrimidin-7-one], 169 to 170 °C.
Turning to `O=c1ccc2cnc(Nc3ccccc3)nc2n1C1CCCCCC1` [Example 155, 8-Cycloheptyl-2-phenylamino-8H-pyrido[2,3-d]pyrimidin-7-one], the melting point fell in the range of 156 to 158 °C.
The same measure, in the same setting: for `CCN(CC)CCOc1ccc(Nc2ncc3ccc(=O)n(C4CCCCCC4)c3n2)cc1` [Example 156, 8-Cycloheptyl-2-[4-(2-diethylamino-ethoxy)-phenylamino]-8H-pyrido[2,3-d]pyrimidin-7-one] the value was 121 to 122 °C.
On the same count and under the same terms, for `O=c1ccc2cnc(Nc3ccc(N4CCCCC4)cc3)nc2n1CCCOC1CCCCO1` (stereo not drawn) [Example 158] the value was 85 to 86 °C.
Still for that read-out and setting: the same measure for `CC(C)(C)OC(=O)C1CCCN1c1ccc(Nc2ncc3ccc(=O)n(C4CCCCC4)c3n2)cc1` (stereo not drawn) [Example 170, 1-[4-(8-Cyclohexyl-7-oxo-7,8-dihydro-pyrido[2,3-d]pyrimidin-2-ylamino)-phenyl]-pyrrolidine-2-carboxylic acid tert-butyl ester]: 144 to 145 °C.
Take `O=c1ccc2cnc(Nc3ccc(N4CCSCC4)cc3)nc2n1C1CCCCC1` [Example 177, 8-Cyclohexyl-2-(4-thiomorpholin-4-yl-phenylamino)-8H-pyrido[2,3-d]pyrimidin-7-one]: the melting point lay within 213 to 214 °C.
Take `O=c1ccc2cnc(Nc3ccccc3)nc2n1C1CC2CCC1C2` (stereo not drawn) [Example 180, 8-Bicyclo[2.2.1]hept-2-yl-2-phenylamino-8H-pyrido[2,3-d]pyrimidin-7-one]: the melting point was 225 to 226 °C.
Compound `O=c1ccc2cnc(Nc3ccccc3)nc2n1CC1CCCCC1` [Example 182, 8-Cyclohexylmethyl-2-phenylamino-8H-pyrido[2,3-d]pyrimidin-7-one] returned a melting point of 230 to 231 °C.
The same measure, in the same setting: for `O=c1ccc2cnc(Nc3ccc(N4CCCCC4)cc3)nc2n1CC1CCCCC1` [Example 183, 8-Cyclohexylmethyl-2-(4-piperidin-1-yl-phenylamino)-8H-pyrido[2,3-d]pyrimidin-7-one] the value was 212 to 213 °C; for `O=c1ccc2cnc(Nc3ccc(F)cc3)nc2n1C1CCCCCC1` [Example 184, 8-Cycloheptyl-2-(4-fluoro-phenylamino)-8H-pyrido[2,3-d]pyrimidin-7-one], 198 to 199 °C.
Take `O=c1ccc2cnc(Nc3ccc(-n4cccn4)cc3)nc2n1C1CCCC1` [Example 191, 8-Cyclopentyl-2-(4-pyrazol-1-yl-phenylamino)-8H-pyrido[2,3-d]pyrimidin-7-one]: the melting point was 197 to 198 °C.
Same read-out and setting: the same measure for `O=c1ccc2cnc(Nc3cccc(N4CCCCC4)c3)nc2n1C1CCCCCC1` [Example 201, 8-Cycloheptyl-2-(3-piperidin-1-yl-phenylamino)-8H-pyrido[2,3-d]pyrimidin-7-one]: 123 to 124 °C.
Compound `O=c1ccc2cnc(Nc3ccc(N4CCCC(O)C4)cc3)nc2n1C1CCCC1` (stereo not drawn) [Example 206, 8-Cyclopentyl-2-[4-(3-hydroxy-piperidin-1-yl)-phenylamino]-8H-pyrido[2,3-d]pyrimidin-7-one] showed a melting point of 178 to 179 °C.
`O=c1ccc2cnc(Nc3ccc(N4CCCCC4CO)cc3)nc2n1C1CCCC1` (stereo not drawn) [Example 207, 8-Cyclopentyl-2-[4-(2-hydroxymethyl-piperidin-1-yl)-phenylamino]-8H-pyrido[2,3-d]pyrimidin-7-one]: the melting point lay within 135 to 136 °C.
Same read-out and setting: the same measure for `O=c1ccc2cnc(Nc3cccc(OC(F)(F)C(F)F)c3)nc2n1C1CC2CCC1C2` (stereo not drawn) [Example 213, 8-Bicyclo[2.2.1]hept-2-yl-2-[3-(1,1,2,2-tetrafluoro-ethoxy)-phenylamino]-8H-pyrido[2,3-d]pyrimidin-7-one]: 192 °C.
On the same count and under the same terms, the same measure for `O=c1ccc2cnc(Nc3ccc(N4CCC(CCO)CC4)cc3)nc2n1C1CCCCC1` [Example 216, 8-Cyclohexyl-2-{4-[4-(2-hydroxy-ethyl)-piperidin-1-yl]-phenylamino}-8H-pyrido[2,3-d]pyrimidin-7-one]: 236 to 237 °C; for `O=c1ccc2cnc(Nc3ccc(N4CCC(CCCN5CCOCC5)CC4)cc3)nc2n1C1CC2CCC1C2` (stereo not drawn) [Example 217, 8-Bicyclo[2.2.1]hept-2-yl-2-[4-[4-(3-morpholin-4-yl-propyl)-piperidin-1-yl]-phenylamino]-8H-pyrido[2,3-d]pyrimidin-7-one]: 185 to 186 °C; for `O=c1ccc2cnc(Nc3ccc(-n4cccn4)cc3)nc2n1C1CC2CCC1C2` (stereo not drawn) [Example 218, 8-Bicyclo[2.2.1]hept-2-yl-2-(4-pyrazol-1-yl-phenylamino)-8H-pyrido[2,3-d]pyrimidin-7-one]: 234 to 235 °C.
The same measure, in the same setting: for `COc1ccc(CNc2ncc3ccc(=O)n(C4CCCCC4)c3n2)cc1` [Example 225, 8-Cyclohexyl-2-(4-methoxy-benzylamino)-8H-pyrido[2,3-d]pyrimidin-7-one] the value was 165 °C; for `Nc1ncc2ccc(=O)n(C3CCCCC3)c2n1` [Example 226, 2-Amino-8-cyclohexyl-8H-pyrido[2,3-d]pyrimidin-7-one], 155 °C.
Take `CN(C)CCCN1CCN(c2ccc(Nc3ncc4ccc(=O)n(C5CC6CCC5C6)c4n3)cc2)CC1` (stereo not drawn) [Example 230, 8-Bicyclo[2.2.1]hept-2-yl-2-{4-[4-(3-dimethylamino-propyl)-piperazin-1-yl]-phenylamino}-8H-pyrido[2,3-d]pyrimidin-7-one]: the melting point was 212 to 213 °C.
Compound `O=c1ccc2cnc(Nc3ccc(N4CCCCC4)cc3)nc2n1C1CCCC1O` (stereo not drawn) [Example 242, 8-(2-Hydroxy-cyclopentyl)-2-(4-piperidin-1-yl-phenylamino)-8H-pyrido[2,3-d]pyrimidin-7-one] showed a melting point of 230 to 232 °C.
Same read-out and setting: the same measure for `CCOC(=O)N1CCC(n2c(=O)ccc3cnc(Nc4ccc(N5CCCCC5)cc4)nc32)CC1` [Example 246, 4-[7-Oxo-2-(4-piperidin-1-yl-phenylamino)-7H-pyrido[2,3-d]pyrimidin-8-yl]-piperidine-1-carboxylic acid ethyl ester]: 231 to 233 °C.
The compound `CC(C)n1c(=O)ccc2cnc(N)nc21` [Example 257, 2-Amino-8-isopropyl-8H-pyrido[2,3-d]pyrimidin-7-one] registered a melting point of 153 °C.
On the same count and under the same terms, the same measure for `O=c1ccc2cnc(Nc3ccc(N4CCC(CCN5CCOCC5)CC4)cc3)nc2n1C1CC2CCC1C2` (stereo not drawn) [Example 259, 8-Bicyclo[2.2.1]hept-2-yl-2-[4-[4-(2-morpholin-4-yl-ethyl)-piperidin-1-yl]-phenylamino]-8H-pyrido[2,3-d]pyrimidin-7-one]: 223 to 224 °C; for `CC(C)n1c(=O)ccc2cnc(Nc3ccc(N4CCC(CCCN5CCOCC5)CC4)cc3)nc21` [Example 260, 8-Isopropyl-2-{4-[4-(3-morpholin-4-yl-propyl)-piperidin-1-yl]-phenylamino}-8H-pyrido[2,3-d]pyrimidin-7-one]: 195 to 196 °C; for `O=c1ccc2cnc(Nc3ccc(N4CCCC(CCCN5CCOCC5)C4)cc3)nc2n1C1CC2CCC1C2` (stereo not drawn) [Example 262, 8-Bicyclo[2.2.1]hept-2-yl-2-{4-[3-(3-morpholin-4-yl-propyl)-piperidin-1-yl]-phenylamino}-8H-pyrido[2,3-d]pyrimidin-7-one]: 156 to 157 °C.
The same measure, in the same setting: the same measure for `O=c1ccc2cnc(Nc3ccc(N4CCCC(CN5CCOCC5)C4)cc3)nc2n1C1CC2CCC1C2` (stereo not drawn) [Example 263, 8-Bicyclo[2.2.1]hept-2-yl-2-[4-(3-morpholin-4-ylmethyl-piperidin-1-yl)-phenylamino]-8H-pyrido[2,3-d]pyrimidin-7-one]: 155 to 157 °C.

In a further data set the target is cdk4/D (Homo sapiens, UniProt P11802). Nature of the data set: Cyclin-Dependent Kinase 4 (cdk4) Assay. Type of data set: biochemical. The settings on record: Table 1; read-out: cdk4/D IC50.
cdk4/D, sequence (P11802 whole entry): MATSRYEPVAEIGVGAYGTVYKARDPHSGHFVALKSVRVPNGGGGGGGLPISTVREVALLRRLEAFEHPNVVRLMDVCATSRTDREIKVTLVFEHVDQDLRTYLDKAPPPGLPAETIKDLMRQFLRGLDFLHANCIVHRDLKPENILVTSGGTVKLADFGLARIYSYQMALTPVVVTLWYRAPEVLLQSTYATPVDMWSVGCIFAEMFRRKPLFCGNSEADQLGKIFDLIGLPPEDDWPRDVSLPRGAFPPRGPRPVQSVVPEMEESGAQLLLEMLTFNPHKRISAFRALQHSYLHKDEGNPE
cdk4/D, sequence (P24385 whole entry, further chain): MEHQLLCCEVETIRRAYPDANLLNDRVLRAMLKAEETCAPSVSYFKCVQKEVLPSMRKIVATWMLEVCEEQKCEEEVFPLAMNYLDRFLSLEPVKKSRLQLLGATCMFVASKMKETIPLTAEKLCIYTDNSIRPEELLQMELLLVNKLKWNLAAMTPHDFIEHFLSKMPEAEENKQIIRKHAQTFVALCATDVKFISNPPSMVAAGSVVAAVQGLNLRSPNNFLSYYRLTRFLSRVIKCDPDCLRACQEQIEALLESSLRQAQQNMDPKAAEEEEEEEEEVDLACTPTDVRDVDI
In the case of `COC(=O)Cn1c(=O)ccc2cnc(Nc3ccccc3)nc21` [Example 36], the IC50 worked out at 31 µM.
Turning to `CCN(CC)CCOc1ccc(Nc2ncc3ccc(=O)n(CCOCc4ccccc4)c3n2)cc1` [Example 139], the IC50 was 2.86 µM.

Staying with this data set, now noted: Table 2, Formula II compounds; read-out: cdk4 IC50.
As to `CCOC(=O)C=Cc1cnc(Nc2ccccc2)nc1N` [Example 28, Ethyl 3-(4-Amino-2-phenylamino-pyrimidin-5-yl)acrylate], the IC50 amounted to 65 µM.

The target in a further data set is cdk2/cyclinE (Homo sapiens, UniProt P24941). Put plainly: Cyclin-Dependent Kinase Assay cdk2/cyclinE. The following applies: cdk2/E IC50, Table 1.
`CCN(CC)CCOc1ccc(Nc2ncc3ccc(=O)n(CCOCc4ccccc4)c3n2)cc1` [Example 139]: the IC50 was 2.63 µM.

(Values after patent US20040224958A1, “Pyridopyrimidinone derivatives for treatment of neurodegenerative disease” (priority 2000, published 2004).)
